Data set [1] deals with T1, 5-HT2 receptor (Rattus norvegicus, UniProt P14842).
T1 construct: A7r5 rat vascular smooth muscle cells; endogenous in cells; host or cells: A7r5 rat vascular smooth muscle cells
Nature of the data set: 5-HT2 Functional Assay: Phosphoinositide (PI) Turnover Assay. Conditions: for pEC50: [3H]inositol phosphates production in A7r5 rat vascular smooth muscle cells. The format is cell-based. How it is done:
5-HT2 Functional Assay: Phosphoinositide (PI) Turnover Assay
The relative agonist activity of serotonergic compounds at the 5-HT2 receptor can be determined in vitro using the ability of the compounds to stimulate the production of [^3H]inositol phosphates in [^3H]myo-inositol-labeled A7r5 rat vascular smooth muscle cells by their ability to activate the enzyme phospholipase C. These cells are grown in culture plates, maintained in a humidified atmosphere of 5% CO2 and 95% air and fed semi-weekly with Dulbecco's modified Eagle medium (DMEM) containing 4.5 g/l glucose and supplemented with 2 mM glutamine, 10 μg/ml gentamicin, and 10% fetal bovine serum. For the purpose of conducting the phosphoinositide (PI) turnover experiments, the A7r5 cells are cultured in 24-well plates as previously [J. Pharmacol. Expt. Ther., 286, 411 (1998)]. Confluent cells are exposed for 24–30 hrs to 1.5 μCi [^3H]-myo-inositol (18.3 Ci/mmol) in 0.5 ml of serum-free medium. Cells are then rinsed once with DMEM/F-12 containing 10 mM LiCl prior to incubation with the test agent (or solvent as the control) in 1.0 ml of the same medium for 1 hr at 37° C., after which the medium is aspirated and 1 ml of cold 0.1 M formic acid added to stop the reaction. The chromatographic separation of [3H]-inositol phosphates ([^3H]-IPs) on an AG-1-X8 column is performed as previously described [J. Pharmacol. Expt. Ther. 286, 411 (1998)] with sequential washes with H2O and 50 mM ammonium formate, followed by elution of the total [^3H]-IPs fraction with 1.2 M ammonium formate containing 0.1 M formic acid. The eluate (4 ml) is collected, mixed with 15 ml scintillation fluid, and the total [^3H]-IPs determined by scintillation counting on a beta-counter. Concentration-response data are analyzed by the sigmoidal fit function of the Origin Scientific Graphics software (Microcal Software, Northampton, Mass.) to determine agonist potency (EC50 value) and efficacy (Emax). Serotonin (5-HT) is used as a positive control (standard) agonist compound and the efficacy of test compounds is compared to that of 5-HT (set at 100%). The concentration of the compound needed to stimulate the production of [^3H]-IPs by 50% of the maximum response is termed the EC50 value.

Setting [2] is: A7r5 cells, efficacy compared to that of 5-HT (set at 100%).

Molecules are shown by their SMILES. pEC50: −log10 of the molar value.

T1 sequence (P14842 whole entry): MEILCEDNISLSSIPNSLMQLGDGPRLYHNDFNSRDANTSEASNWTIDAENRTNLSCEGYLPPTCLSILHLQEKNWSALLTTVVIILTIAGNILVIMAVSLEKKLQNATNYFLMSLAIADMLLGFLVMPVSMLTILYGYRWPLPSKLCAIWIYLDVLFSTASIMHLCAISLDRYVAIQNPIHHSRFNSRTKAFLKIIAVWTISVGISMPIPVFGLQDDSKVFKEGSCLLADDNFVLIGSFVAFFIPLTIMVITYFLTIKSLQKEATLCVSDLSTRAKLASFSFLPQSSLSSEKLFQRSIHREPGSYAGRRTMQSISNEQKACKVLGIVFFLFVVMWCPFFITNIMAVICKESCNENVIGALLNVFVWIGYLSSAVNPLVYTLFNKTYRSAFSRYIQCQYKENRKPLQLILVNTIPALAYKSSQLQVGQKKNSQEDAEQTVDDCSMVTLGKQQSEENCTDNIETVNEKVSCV

In the case of `CC(N)Cn1ncc2ccc(OC(=O)C(C)(C)C)cc21.O=C(O)/C=C/C(=O)O` (centres unmarked), the melting point was 180 to 182 °C.

`COc1ccc2c(C)nn(CC(C)N)c2c1.O=C(O)/C=C/C(=O)O` (centres unmarked) [Example 1, 2-(6-Methoxy-3-methyl-indazol-1-yl)-1-methylethylamine Fumarate]: the melting point was in the range of 150 to 152 °C. In data set [1] (setting [2]), this compound returned a maximal response (Emax) of 71%. Further, the pEC50 in data set [1] was 6.24.

On to `Cc1nn(CC(C)N)c2cc(O)ccc12.O=C(O)/C=C/C(=O)O` (centres unmarked) [Example 2, 1-(2-Aminopropyl)-3-methyl-1H-indazol-6-ol Fumarate], for which the melting point lay within 166 to 168 °C. Also, in data set [1] (setting [2]), the Emax stood at 87%. This compound gave a pEC50 in data set [1] of 6.32.

In data set [1] (setting [2]), `COc1ccc2cnn(CC(C)N)c2c1` (centres unmarked) [Example 4, 2-(6-Methoxy-indazol-1-yl)-1-methyl-ethylamine] showed an Emax of 73%. In data set [1], this compound gave a pEC50 of 6.61.

Compound `COc1ccc2c(Cl)nn(CC(C)N)c2c1` (centres unmarked) [Example 5, 2-(3-Chloro-6-methoxy-indazol-1-yl)-1-methyl-ethylamine] returned a maximal effect (Emax) in data set [1] (setting [2]) of 64%. In data set [1], the pEC50 was 6.27.

`CC(N)Cn1nc(Cl)c2ccc(O)cc21` (centres unmarked) [Example 6, 1-(2-Aminopropyl)-3-chloro-1H-indazol-6-ol]: the Emax in data set [1] (setting [2]) worked out at 84%. The compound also gave a negative-log EC50 (pEC50) in data set [1] of 5.98.

For `CC(N)Cc1c[nH]c2ccc(O)cc12` (stereo not drawn) [α-Methylserotonin, reference compound], the “Efficacy (Emax, %)” value in data set [1] (setting [2]) turned out to be 104%.
